Assay results taken from patent US20050119461A1, “Novel receptor, and compounds which bind thereto” (THE UNIVERSITY OF MELBOURNE, priority 1997, published 2005).
Where two headings read alike, the source gives them in different places.

Tests used:
[1] = test system: Ox receptor; test: Selectivity data of Table 1 (Ox over alpha2), tissue not stated; type: binding; details: tissue and species not stated
From the text: The term “selectivity” as used herein refers to the selectivity of a compound for the Ox receptor over another receptor in mammalian tissue containing said receptors. The selectivity is the reciprocal of the ratio of the affinities (in nM) for each receptor site. Preferably the tissue is human tissue.
The compounds prepared above are represented in Table 1 below together with selectivity data where available.

[2] = target: I2-receptor; test: I2-receptor binding, [3H]-idazoxan displacement in human brain homogenates; details: for Ki: human brain homogenates, Table 5, read-out: Receptor Affinities (nM) I2
[3] = target: α2-adrenoceptor; test: α2-adrenoceptor binding, [3H]-methoxyidazoxan displacement in rat brain homogenates; details: for Ki: rat brain homogenates, Table 4, read-out: Receptor Affinities (nM) α2; for affinity for the α2-adrenoceptor (in words): rat
[4] = test system: Ox receptor; test: Ox receptor binding, [3H]-rilmenidine displacement in rat brain homogenates; details: for Ki: read-out: Receptor Affinities (nM) Ox; for affinity for the Ox receptor (in words): rat
[5] = target: Ox receptor; test: Ox receptor binding, [3H]-rilmenidine displacement in human brain homogenates; details: for Ki / Selectivity Ox/I2: human brain homogenates; for Ki: Table 5, read-out: Receptor Affinities (nM) Ox; for Selectivity Ox/I2: >1 = selectivity for the Ox receptor
[6] = target: I2-receptor; test: I2-receptor binding, [3H]-idazoxan displacement in rat brain homogenates; details: for Ki: rat brain homogenates, Table 3, read-out: Receptor Affinities (nM) I2; for affinity for the I2-receptor (in words): rat
Procedure: Male WKY rats are stunned and decapitated.
Brain membranes prepared as above, are incubated in the presence of [^3H]-methoxyidazoxan (52-57 Ci/mmol) 0.5 nM or [^3H]-idazoxan (43-45Ci/mmol) 1.6 nM in Tris.HCl buffer pH 7.4 for α2-adrenoceptor and I2-receptor binding respectively. Inhibition of binding is measured in the presence of increasing amounts of test compound (0.1 nM to 1 mM). Non-specific binding is estimated by addition of 10 μM phentolamine or 100 μM cirazoline respectively. Membrane bound radioactivity is isolated and measured as above by vacuum filtration, washing and scintillation counting. Data is analysed by the “RADLIG” program.

[7] = human brains, compared with rat
[8] = rat brain homogenates, reciprocal of the ratio of affinities, >1 = more selective for Ox site

Row | affinity for the α2-adrenoceptor (in words) [3] | affinity for the Ox receptor (in words) [4] | affinity for the I2-receptor (in words) [6] | affinity for the I2-receptor (in words) [2, 7] | Selectivity Ox/I2 [4, 8] | Selectivity Ox/α2 [4, 8] | affinity for the Ox receptor (in words) [5, 7] | Compound | Selectivity Ox/apha2 [1] | Ki [2] [nM] | Ki [3] [nM] | Selectivity Ox/I2 [4] | Selectivity Ox/α2 [4] | Ki ([4]; rat brain homogenates, Table 3) [nM] | Ki ([4]; rat brain homogenates, Table 4) [nM] | Ki [5] [nM] | Selectivity Ox/I2 [5] | Ki [6] [nM]
1 |  |  |  |  |  |  |  | CC(CNC1=NCCO1)c1ccc(OCc2ccccc2)cc1 (stereo not shown) [Compound O509, 2-(4-benzyloxyphenyl)propylaminooxazoline] | 2.0 |  |  |  |  |  |  |  |  | 
2 |  |  |  |  |  |  |  | C[C@@H](NC1=NCCO1)C1CCCCC1 [(R)-(−)-O504, (R-(−)-2-(1-Cyclohexylethylamino)-oxazoline)] |  | 2700 | 590 | 1.8 | 18 | 31 | 32 | 300 | 9 | 56
3 |  |  |  |  |  |  |  | c1ccc(C(NC2=NCCO2)c2ccccc2)cc1 [Compound O502] |  | 686 | 380 | 12 | 2.4 | 160 | 160 | 234 | 3 | 1900
4 |  | high affinity (nM) | high affinity (nM) | lower affinity | 2.4 | 27 | lower affinity | C1COC(NC(C2CC2)C2CC2)=N1 [Rilmenidine] |  | 5220 | 410 |  |  | 15 | 15 | 396 | 13 | 36
5 |  |  |  |  |  |  |  | C1CCC(C(NC2=NCCO2)C2CCCCC2)CC1 [Compound O503] |  | 4800 | 640 | 32 | 5.5 | 117 | 117 | 70 | 69 | 3800
6 |  |  |  |  |  |  |  | C[C@H](NC1=NCCO1)C1CCCCC1 [(S)-(+)-O504, (S)-(+)-2-(1-Cyclohexylethylamino)-oxazoline] |  | 2190 | 30 | 6.7 | 1.5 | 106 | 20 | 180 | 12 | 707
7 |  |  |  |  |  |  |  | CCC1CCCC(C)C1NC1=NCCO1 (stereo not shown) [BAY-A6781] |  | 8250 |  |  |  |  |  | 215 | 38 | 
8 | high affinity (nM) | poor (μM) affinity | high affinity (nM) |  | 0.00004 | 0.0003 |  | c1ccc2c(c1)OCC(C1=NCCN1)O2 (stereo not shown) [Idazoxan, 2-(1,4-benzodioxan)-imidazoline] |  | 4.8 | 15.6 |  |  | 62300 | 62300 | 6060 | 0.0008 | 2.3
9 |  |  |  |  |  |  |  | Oc1ccc(CCNC2=NCCO2)cc1 [Compound O508, 2-(4-hydroxyphenyl)ethylaminooxazoline] | 100 |  |  |  |  |  |  |  |  | 
10 |  |  |  |  |  |  |  | FC(F)(F)C(NC1=NCCO1)C1CC1 (single isomer, unassigned; (+)) [(+)-S8349] |  | 13000 |  |  |  |  |  | 268 | 49 | 
11 |  |  |  |  |  |  |  | FC(F)(F)C(NC1=NCCO1)C1CC1 (single isomer, unassigned; (-)) [(−)-S8350] |  | 7700 |  |  |  |  |  | 199 | 32 | 
12 |  |  |  |  |  |  |  | C[C@H](NC1=NCCO1)c1cccc2ccccc12 [(S)-(−)-O506] |  | 7580 |  |  |  |  |  | 99 | 77 | 
13 | poor affinity (μM) | poor (μM) affinity | high affinity (nM) |  |  | <0.1 |  | c1ccc2nc(C3=NCCN3)ccc2c1 [BU-224, 2-(4,5-dihydroimidaz-2-yl)quinoline] |  | 2.2 | 5480 |  |  | > 100000 | > 100000 | 9580 | 0.0002 | 0.9
14 |  |  |  |  |  |  |  | CCC1CCCC(CC)C1NC1=NCCO1 (stereo not shown) [Compound O501] |  | 9100 | 210 | 383 | 12 | 18 | 18 | 38 | 239 | 6900

Row | Compound | affinity for the α2-adrenoceptor (in words) [3] | affinity for the Ox receptor (in words) [4] | affinity for the I2-receptor (in words) [6] | affinity for the I2-receptor (in words) [2, 7] | Selectivity Ox/I2 [4, 8] | Selectivity Ox/α2 [4, 8] | affinity for the Ox receptor (in words) [5, 7] | Selectivity Ox/apha2 [1] | Ki [2] [nM] | Ki [3] [nM] | Selectivity Ox/I2 [4] | Selectivity Ox/α2 [4] | Ki ([4]; rat brain homogenates, Table 3) [nM] | Ki ([4]; rat brain homogenates, Table 4) [nM] | Ki [5] [nM] | Selectivity Ox/I2 [5] | Ki [6] [nM]
15 | COC1(C2=NCCN2)COc2ccccc2O1 (stereo not shown) [Methoxyidazoxan, 2-(2-methoxy-1,4-benzodioxan)-imidazoline)] | high affinity (nM) | poor affinity (μM) | poor affinity (μM) |  |  |  |  |  | > 100000 | 1.9 | 0.08 |  | 319000 | 319000 | 100000 | 1 | 24400
